In ChEMBL document CHEMBL1201862, “PubChem BioAssay data set” (2004):
Activity calls are given as the source filed them.

Tests used:
[1] = molecular target: Induced myeloid leukemia cell differentiation protein Mcl-1 (Homo sapiens, UniProt Q07820); format: functional
[2] = molecular target: Hepatocyte nuclear factor 4-alpha (Homo sapiens, UniProt P41235); format: functional, cell-based;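 also: biochemical luminescence-based dose-response counterscreen measuring inhibition of HNF4 dimerization, run alongside a screen for blockers of ABHD5–perilipin-5 interaction; split luciferase complementation of HNF4 fusion proteins in cell lysate measuring dimerization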
Sequence of Hepatocyte nuclear factor 4-alpha (P41235 whole entry, the tested form may be a part): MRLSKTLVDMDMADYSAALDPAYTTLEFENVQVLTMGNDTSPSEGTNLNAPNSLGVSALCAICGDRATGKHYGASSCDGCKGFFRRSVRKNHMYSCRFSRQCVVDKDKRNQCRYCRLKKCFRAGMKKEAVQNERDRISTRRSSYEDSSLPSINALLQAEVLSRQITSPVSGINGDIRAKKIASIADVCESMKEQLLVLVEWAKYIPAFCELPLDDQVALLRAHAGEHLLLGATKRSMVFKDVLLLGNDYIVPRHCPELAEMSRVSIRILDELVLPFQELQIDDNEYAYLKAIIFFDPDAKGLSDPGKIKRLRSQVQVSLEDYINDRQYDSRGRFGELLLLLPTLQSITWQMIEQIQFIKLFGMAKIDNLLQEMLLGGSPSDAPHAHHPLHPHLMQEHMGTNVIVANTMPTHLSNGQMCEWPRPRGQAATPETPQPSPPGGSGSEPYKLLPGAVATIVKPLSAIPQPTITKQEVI

[3] = molecular target: V-type proton ATPase subunit c' (Saccharomyces cerevisiae S288c, UniProt P32842); assay: Dose Response of Small Molecules that Regulate V-ATPase Proton Transport in Yeast using pHLuorin, Cherry Pick 2.; format: functional; settings: read-out: EC50_MICROM
Sequence of V-type proton ATPase subunit c' (P32842 whole entry): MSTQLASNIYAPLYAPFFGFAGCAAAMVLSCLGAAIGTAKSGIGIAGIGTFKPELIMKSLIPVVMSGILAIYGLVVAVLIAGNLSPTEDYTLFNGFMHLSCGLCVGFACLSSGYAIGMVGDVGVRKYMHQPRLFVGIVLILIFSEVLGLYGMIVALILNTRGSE

Vero = assay: cells; format: functional; settings: Chlorocebus sabaeus
[4] = molecular target: Tyrosine-protein phosphatase non-receptor type 11 (Homo sapiens, UniProt Q06124); assay: SHP2 phosphatase inhibition, dose response, selectivity assay for STEP inhibitor project, biochemical (AID 602367); format: functional; settings: read-out: IC50_Mean
Sequence of Tyrosine-protein phosphatase non-receptor type 11 (Q06124 whole entry): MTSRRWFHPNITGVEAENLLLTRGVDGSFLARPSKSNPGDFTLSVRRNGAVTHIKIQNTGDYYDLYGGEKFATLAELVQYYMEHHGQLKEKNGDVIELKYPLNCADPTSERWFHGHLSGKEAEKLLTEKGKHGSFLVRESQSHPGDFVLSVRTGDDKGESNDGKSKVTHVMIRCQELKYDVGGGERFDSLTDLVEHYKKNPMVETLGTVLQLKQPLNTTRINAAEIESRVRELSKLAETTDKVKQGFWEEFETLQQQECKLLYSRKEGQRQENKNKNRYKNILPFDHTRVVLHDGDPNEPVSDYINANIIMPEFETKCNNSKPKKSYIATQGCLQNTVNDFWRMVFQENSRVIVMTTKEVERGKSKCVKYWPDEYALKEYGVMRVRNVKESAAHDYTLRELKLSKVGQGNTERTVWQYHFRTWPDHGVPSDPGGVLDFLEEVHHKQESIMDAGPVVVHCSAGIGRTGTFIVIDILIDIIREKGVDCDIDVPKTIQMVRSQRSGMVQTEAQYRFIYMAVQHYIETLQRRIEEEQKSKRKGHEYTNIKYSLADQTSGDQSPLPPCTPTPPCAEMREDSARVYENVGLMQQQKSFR

[5] = molecular target: Dual specificity protein phosphatase 3 (Homo sapiens, UniProt P51452); assay: VHR phosphatase inhibition, dose response, selectivity assay for STEP inhibitor project, biochemical (AID 602374); format: functional; settings: read-out: IC50_Mean
Sequence of Dual specificity protein phosphatase 3 (P51452 whole entry): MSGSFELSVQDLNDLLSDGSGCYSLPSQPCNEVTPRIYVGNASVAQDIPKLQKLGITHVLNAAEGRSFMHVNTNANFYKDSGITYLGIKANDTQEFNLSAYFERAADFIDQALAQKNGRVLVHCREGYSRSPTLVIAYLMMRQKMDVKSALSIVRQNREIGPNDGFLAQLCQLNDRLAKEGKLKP

[6] = molecular target: Tyrosine-protein phosphatase non-receptor type 5 (Homo sapiens, UniProt P54829); assay: STEP phosphatase inhibitors, confirmation, biochemical, fluorescence intensity, uHTS hits (AID 602372); format: functional; settings: read-out: IC50_Mean
Sequence of Tyrosine-protein phosphatase non-receptor type 5 (P54829 whole entry): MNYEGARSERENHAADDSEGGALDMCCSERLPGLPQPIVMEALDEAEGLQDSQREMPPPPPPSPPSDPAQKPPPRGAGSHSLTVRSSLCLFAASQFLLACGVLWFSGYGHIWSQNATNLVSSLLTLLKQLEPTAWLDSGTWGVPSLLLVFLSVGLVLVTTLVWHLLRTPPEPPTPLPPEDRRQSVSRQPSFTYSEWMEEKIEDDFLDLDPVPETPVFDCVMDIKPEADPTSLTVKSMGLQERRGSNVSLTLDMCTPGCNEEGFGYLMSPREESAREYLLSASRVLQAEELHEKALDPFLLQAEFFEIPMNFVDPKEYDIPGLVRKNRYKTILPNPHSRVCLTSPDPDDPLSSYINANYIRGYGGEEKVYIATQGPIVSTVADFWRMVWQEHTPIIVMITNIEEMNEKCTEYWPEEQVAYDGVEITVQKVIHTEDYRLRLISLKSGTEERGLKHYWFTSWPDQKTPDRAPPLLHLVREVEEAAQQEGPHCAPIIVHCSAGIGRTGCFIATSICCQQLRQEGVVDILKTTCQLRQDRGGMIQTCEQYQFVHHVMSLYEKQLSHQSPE

[7] = Luminescence Cell-Based Dose Confirmation HTS to Identify Inhibitors of Platelet Dense Granule Release. [Related pubchem assays: 1663 (Primary HTS), 1678 (Summary of Project)]; format: functional
[8] = molecular target: Luciferin 4-monooxygenase (Photinus pyralis, UniProt P08659); assay: firefly luciferase enzyme inhibitors, dose response, biochemical, luminescence (AID 1891)
Sequence of Luciferin 4-monooxygenase (P08659 whole entry): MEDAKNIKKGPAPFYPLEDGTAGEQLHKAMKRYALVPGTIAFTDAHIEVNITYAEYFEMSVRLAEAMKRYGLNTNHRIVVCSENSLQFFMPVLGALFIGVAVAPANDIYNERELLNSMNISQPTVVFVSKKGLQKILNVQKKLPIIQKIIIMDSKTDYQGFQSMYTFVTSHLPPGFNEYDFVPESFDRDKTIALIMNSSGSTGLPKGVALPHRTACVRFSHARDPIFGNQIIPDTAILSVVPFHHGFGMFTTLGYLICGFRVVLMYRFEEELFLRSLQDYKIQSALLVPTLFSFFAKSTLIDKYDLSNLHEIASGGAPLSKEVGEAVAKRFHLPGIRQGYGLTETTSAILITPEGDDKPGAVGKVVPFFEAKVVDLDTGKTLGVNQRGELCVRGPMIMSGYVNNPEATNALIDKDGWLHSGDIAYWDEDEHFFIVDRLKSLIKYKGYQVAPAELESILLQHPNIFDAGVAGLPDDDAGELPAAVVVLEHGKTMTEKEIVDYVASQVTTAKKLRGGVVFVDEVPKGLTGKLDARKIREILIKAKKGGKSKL

[9] = StAR promoter reporter inhibition counter-screen, dose response, counter-screen for LRH-1 inverse agonist project, cell-based, luminescence, luciferase reporter (AID 651969); format: functional
[10] = molecular target: Nuclear receptor subfamily 5 group A member 2 (Homo sapiens, UniProt O00482); format: functional, cell-based;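 also: HEK293T cells transfected with LRH-1 and a StAR promoter luciferase reporter; potency for inhibitors that lower LRH-1 driven reporter light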
Sequence of Nuclear receptor subfamily 5 group A member 2 (O00482 whole entry): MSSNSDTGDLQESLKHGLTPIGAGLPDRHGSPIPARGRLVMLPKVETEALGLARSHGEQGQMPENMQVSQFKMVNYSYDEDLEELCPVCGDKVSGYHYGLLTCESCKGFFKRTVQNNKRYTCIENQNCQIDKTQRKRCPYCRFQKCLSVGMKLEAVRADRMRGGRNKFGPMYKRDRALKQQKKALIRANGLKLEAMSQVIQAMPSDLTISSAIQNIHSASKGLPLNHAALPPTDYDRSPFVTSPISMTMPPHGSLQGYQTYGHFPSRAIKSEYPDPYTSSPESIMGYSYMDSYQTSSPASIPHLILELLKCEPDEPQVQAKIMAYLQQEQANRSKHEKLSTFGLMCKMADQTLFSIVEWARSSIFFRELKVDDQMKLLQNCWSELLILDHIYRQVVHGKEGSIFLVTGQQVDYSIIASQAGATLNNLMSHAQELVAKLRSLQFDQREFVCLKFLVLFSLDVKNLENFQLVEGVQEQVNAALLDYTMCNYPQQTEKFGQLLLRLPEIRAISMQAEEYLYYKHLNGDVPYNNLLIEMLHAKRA

Steroidogenic factor 1 = Steroidogenic factor 1 (Homo sapiens, UniProt Q13285); assay: Counterscreen for inverse agonists of the liver receptor homolog-1 (LRH-1; NR5A2): Luminescence-based cell-based high throughput dose response assay to identify inverse agonists of the Steroidogenic Factor 1 Nuclear Receptor (SF1; NR5A1).; format: functional
Sequence of Steroidogenic factor 1 (Q13285 whole entry): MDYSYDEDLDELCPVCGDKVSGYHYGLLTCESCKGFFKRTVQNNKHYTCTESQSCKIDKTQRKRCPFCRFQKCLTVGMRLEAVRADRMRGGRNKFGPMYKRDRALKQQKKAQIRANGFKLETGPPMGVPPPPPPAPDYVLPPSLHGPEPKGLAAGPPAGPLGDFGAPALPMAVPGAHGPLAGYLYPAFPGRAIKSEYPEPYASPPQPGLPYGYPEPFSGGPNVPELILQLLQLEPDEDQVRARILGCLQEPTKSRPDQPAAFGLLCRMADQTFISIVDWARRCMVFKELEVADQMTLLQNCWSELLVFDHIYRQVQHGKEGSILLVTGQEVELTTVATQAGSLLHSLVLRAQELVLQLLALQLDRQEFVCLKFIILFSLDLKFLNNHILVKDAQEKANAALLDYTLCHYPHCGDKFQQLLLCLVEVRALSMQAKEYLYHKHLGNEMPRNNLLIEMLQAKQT

[11] = molecular target: T1, Zinc finger protein mex-5 (Caenorhabditis elegans, UniProt Q9XUB2); assay: MEX-5/TCR-2 RNA interaction inhibitors, dose response, biochemical, C. elegans, fluorescence polarization (AID 1960)
T1 sequence (Q9XUB2 whole entry): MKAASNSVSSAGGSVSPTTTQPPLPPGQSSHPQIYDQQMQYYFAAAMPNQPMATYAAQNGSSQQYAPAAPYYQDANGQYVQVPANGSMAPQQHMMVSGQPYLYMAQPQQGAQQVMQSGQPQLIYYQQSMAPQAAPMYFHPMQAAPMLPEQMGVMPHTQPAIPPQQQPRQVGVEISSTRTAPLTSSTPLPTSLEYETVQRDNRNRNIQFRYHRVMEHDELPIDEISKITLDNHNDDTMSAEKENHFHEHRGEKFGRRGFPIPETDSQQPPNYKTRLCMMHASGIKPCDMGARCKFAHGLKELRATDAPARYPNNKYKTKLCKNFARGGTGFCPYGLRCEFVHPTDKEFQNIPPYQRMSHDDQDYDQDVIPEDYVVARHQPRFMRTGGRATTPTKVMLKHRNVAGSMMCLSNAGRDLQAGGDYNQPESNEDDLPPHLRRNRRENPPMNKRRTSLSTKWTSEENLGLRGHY

[12] = molecular target: T2, RNA-binding protein pos-1 (Caenorhabditis elegans, UniProt G5EF15); assay: inhibitors of POS-1/mex-3 RNA binding, dose response, biochemical, fluorescence polarization (AID 1964);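 also: purified POS-1 fused to maltose binding protein made in E. coli; potency of compounds blocking POS-1 binding to fluorescent RNA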
T2 sequence (G5EF15 whole entry): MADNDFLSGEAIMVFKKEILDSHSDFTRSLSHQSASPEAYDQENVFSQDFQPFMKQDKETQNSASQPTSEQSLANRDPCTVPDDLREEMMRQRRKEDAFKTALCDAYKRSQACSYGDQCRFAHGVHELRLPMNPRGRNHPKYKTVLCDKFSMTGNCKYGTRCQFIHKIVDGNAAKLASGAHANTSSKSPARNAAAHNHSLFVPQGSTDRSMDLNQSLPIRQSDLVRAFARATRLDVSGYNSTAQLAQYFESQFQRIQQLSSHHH

[13] = molecular target: T3, Low molecular weight phosphotyrosine protein phosphatase (Homo sapiens, UniProt P24666); format: functional; settings: read-out: IC50_Mean
T3 sequence (P24666 whole entry): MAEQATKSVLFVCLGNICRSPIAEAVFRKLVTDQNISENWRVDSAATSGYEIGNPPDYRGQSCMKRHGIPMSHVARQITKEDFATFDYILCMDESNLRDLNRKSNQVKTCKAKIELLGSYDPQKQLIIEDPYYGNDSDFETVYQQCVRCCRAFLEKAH

[14] = molecular target: T3, Low molecular weight phosphotyrosine protein phosphatase; format: functional; settings: read-out: IC50_Mean; remark: listed apart in the source
Protein RecA = molecular target: T4, Protein RecA (Mycobacterium tuberculosis, UniProt P9WHJ3); assay: Fluorescence Cell-Free Homogeneous Dose Retest to Identify Inhibitors of RecA-Intein Splicing Activity. [Related pubchem assays (depositor defined):AID2097, AID2223, AID489010, AID492950]; format: functional
T4 sequence (P9WHJ3 whole entry): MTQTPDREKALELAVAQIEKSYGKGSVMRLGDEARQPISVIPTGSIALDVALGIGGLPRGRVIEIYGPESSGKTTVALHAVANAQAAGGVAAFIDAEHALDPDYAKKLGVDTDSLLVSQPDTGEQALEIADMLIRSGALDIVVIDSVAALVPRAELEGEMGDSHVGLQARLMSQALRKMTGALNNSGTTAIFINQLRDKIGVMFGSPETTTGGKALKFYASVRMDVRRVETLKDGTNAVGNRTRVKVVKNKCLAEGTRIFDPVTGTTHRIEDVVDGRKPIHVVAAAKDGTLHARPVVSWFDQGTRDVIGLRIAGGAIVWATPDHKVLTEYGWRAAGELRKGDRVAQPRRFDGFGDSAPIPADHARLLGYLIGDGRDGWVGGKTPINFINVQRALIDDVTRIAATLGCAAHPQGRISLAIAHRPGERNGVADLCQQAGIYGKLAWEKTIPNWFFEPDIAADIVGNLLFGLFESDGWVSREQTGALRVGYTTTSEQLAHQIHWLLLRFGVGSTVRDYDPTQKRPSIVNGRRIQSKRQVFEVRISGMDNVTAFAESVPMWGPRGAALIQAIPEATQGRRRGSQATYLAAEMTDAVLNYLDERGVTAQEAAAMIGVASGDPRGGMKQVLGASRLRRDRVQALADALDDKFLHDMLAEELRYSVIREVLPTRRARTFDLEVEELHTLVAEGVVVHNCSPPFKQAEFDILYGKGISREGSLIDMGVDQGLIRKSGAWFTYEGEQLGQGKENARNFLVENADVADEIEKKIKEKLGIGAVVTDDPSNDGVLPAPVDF

[15] = control 3'UTR Renilla luciferase suppression, dose response, counter-screen for Shn3 inhibitor project, cell-based, Clone20-Shn3RL, cherry-picked (AID 624133); format: functional
Melanocortin receptor 4 [16] = molecular target: T5, Melanocortin receptor 4 (Homo sapiens, UniProt P32245); assay: MC4R antagonist potency on cAMP, dose response, cell-based, TR-FRET, biased antagonists (AID 602298); format: functional;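 also: antagonist potency against agonist-stimulated cAMP production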
T5 sequence (P32245 whole entry): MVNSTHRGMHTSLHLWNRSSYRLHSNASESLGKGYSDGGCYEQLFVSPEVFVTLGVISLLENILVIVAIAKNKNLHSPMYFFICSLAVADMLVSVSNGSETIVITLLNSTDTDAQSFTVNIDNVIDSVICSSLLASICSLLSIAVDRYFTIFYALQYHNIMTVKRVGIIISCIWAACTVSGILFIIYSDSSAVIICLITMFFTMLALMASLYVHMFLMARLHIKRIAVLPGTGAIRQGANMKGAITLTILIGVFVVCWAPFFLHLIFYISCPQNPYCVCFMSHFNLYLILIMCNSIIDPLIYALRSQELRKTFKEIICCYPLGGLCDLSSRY

[17] = Shn3 3'UTR reporter inhibitors, dose response, cell-based, Clone20 osteoblasts, firefly luciferase, cherry-picked (AID 624132); format: functional;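 also: firefly luciferase luminescence from reporter carrying the Shn3 3'UTR in osteoblasts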
Beta Lactamase = Beta Lactamase (Pseudomonas aeruginosa, UniProt Q932Y6); assay: beta-lactamase reporter inhibitor potency, dose response, artefact control for NOD2-RIPK2 interaction inhibitor project, BLA reporter cells, FRET fluorescence (AID 651552); format: functional, cell-based
Sequence of Beta Lactamase (Q932Y6 whole entry): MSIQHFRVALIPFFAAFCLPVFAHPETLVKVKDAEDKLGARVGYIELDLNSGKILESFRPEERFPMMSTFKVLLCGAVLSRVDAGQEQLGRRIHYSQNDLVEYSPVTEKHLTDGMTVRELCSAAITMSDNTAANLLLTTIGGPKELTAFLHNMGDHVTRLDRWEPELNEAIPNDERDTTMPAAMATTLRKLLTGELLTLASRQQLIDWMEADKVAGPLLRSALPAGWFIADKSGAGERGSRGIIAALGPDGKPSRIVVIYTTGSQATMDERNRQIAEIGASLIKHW

[18] = HepG2 cell cytotoxicity, dose response, cytotoxicity control for Shn3 inhibitor project, CellTiter-Glo, cherry-picked (AID 624134); format: functional, cell-based
[19] = molecular target: T6, Replicative DNA helicase DnaB (Mycobacterium tuberculosis, UniProt P9WMR3); assay: DnaB intein splicing inhibitors, dose response, biochemical, cell-free fluorescence (AID 449749); format: functional
T6 sequence (P9WMR3 whole entry): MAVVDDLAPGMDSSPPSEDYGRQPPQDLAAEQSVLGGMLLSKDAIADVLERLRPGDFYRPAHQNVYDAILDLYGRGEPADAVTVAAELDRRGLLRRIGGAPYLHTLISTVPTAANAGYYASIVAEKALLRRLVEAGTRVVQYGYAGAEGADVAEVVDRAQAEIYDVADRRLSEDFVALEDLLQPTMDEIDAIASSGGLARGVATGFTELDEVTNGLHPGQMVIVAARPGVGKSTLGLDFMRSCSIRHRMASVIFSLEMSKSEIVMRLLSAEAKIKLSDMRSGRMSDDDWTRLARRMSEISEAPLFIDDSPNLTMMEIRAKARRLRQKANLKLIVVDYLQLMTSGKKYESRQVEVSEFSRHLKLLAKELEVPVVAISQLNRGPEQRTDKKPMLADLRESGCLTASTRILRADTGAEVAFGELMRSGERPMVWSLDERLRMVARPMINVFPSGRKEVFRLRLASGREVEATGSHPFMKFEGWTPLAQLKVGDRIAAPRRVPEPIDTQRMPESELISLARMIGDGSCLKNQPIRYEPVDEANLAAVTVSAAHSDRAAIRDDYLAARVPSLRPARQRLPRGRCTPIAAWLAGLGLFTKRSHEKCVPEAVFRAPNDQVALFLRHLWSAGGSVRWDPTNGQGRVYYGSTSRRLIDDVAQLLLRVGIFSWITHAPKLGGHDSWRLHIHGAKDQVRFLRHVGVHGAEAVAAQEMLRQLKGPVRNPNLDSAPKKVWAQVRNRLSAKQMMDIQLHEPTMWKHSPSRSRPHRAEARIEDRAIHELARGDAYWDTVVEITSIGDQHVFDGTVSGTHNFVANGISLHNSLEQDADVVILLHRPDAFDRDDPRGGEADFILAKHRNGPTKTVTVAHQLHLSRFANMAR

[20] = Fluorescence-based cell-based high throughput dose response assay for inhibitors of the interaction of nucleotide-binding oligomerization domain containing 2 (NOD2) and the receptor-interacting serine-threonine kinase 2 (RIPK2).; format: functional; settings: Homo sapiens
[21] = nonselective inhibitors of cellular cAMP signaling, dose response, counter-screen for MC4R biased antagonist project, cell-based, TR-FRET cAMP detection (AID 602305); format: functional;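 also: U2OS cells stimulated with forskolin near its EC80 as the cAMP inducer; potency is for inhibition of forskolin-stimulated cAMP signaling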
[22] = inhibitors of firefly luciferase expression or activity, dose response, H4 neuroglioma cells, luminescence (AID 1990); format: functional, cell-based
[23] = Vero E6 cell cytotoxicity, dose response, cytotoxicity control for non-replicating M. tuberculosis project, secondary assay (AID 492998); format: functional, VeroE6; settings: Vero C1008
Melanocortin receptor 4 [24] = molecular target: T5, Melanocortin receptor 4; format: functional, cell-based
[25] = Luminescence Cell-Based Dose Response HTS to Identify Inhibitors of 5'UTR Stem-Loop Driven Prion Protein mRNA Translation in H4 Neuroglioblastoma Cells. [Related pubchem assays: 1827 (Project Summary), 1813 (Primary HTS)]; format: functional
[26] = HepG2 cell cytotoxicity, dose response, cytotoxicity control for non-replicating M. tuberculosis project (AID 489018); format: functional; settings: Mycobacterium tuberculosis
[27] = THP-1 cell cytotoxicity, dose response, cytotoxicity control for non-replicating M. tuberculosis project (AID 489025); format: functional
[28] = inhibitors of SNCA 5'UTR-driven reporter translation, confirmation, H4 neuroglioma cells, luminescence (AID 1988); format: functional, cell-based
cells = format: functional

Sequence of Induced myeloid leukemia cell differentiation protein Mcl-1 (Q07820 whole entry, the tested form may be a part): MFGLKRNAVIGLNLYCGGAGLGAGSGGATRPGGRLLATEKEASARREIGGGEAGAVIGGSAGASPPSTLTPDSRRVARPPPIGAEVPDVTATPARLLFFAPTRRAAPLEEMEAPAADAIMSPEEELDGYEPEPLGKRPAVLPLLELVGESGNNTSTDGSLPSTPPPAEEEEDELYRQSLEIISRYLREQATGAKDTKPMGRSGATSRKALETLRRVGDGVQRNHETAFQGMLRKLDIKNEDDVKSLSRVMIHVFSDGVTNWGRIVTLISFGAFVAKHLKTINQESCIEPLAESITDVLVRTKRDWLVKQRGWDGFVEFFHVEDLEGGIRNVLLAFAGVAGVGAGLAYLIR

SMILES: Cc1cccc(NC(=O)CSc2nnc(-c3ccco3)c(-c3ccco3)n2)c1
- IC50 [1]: 5.78 µM (active)
- IC50 [2]: 1.42 µM (active)

SMILES: CN1C(=O)/C(=C\c2ccc(Br)s2)C(=O)NC1=S
- EC50 [3]: 6.43 µM (active)
- CC50 (Vero): 22.9 µM (active)

SMILES: Cc1ccc(NC(=O)CCn2c(=S)oc3ccccc32)cc1F
- IC50 [4]: 3.14 µM (active)
- IC50 [5]: 7.02 µM (active)
- IC50 [6]: > 80 µM (inactive)

SMILES: CCC(=O)Nc1nnc(SCC(=O)NCCc2ccc(OC)c(OC)c2)s1
- EC50 [7]: > 112 µM (not active)
- EC50 [8]: > 112 µM (not active)
- IC50 [9]: 35.9 µM (inactive)
- IC50 [10]: 12 µM (inactive)
- IC50 (Steroidogenic factor 1): 2.05 µM (active)

SMILES: N#CC1=C(N)OC2=C(C(=O)CC(c3ccco3)C2)C1c1ccc(OCc2c(F)cccc2Cl)cc1 (stereo not drawn)
- EC50 [11]: > 300 µM (not active)
- EC50 [12]: > 300 µM (not active)
- IC50 [13]: > 80 µM (inactive)
- IC50 [14]: 35.1 µM (inactive)

SMILES: Cc1cccc(CS(=O)(=O)c2ncc(Cl)c(C(=O)NCc3ccc4c(c3)OCO4)n2)c1
- EC50 (Protein RecA): 3.52 µM (active)
- AC50 [15]: 11.3 µM (active)
- IC50 (Melanocortin receptor 4 [16]): > 64.6 µM (inactive)
- AC50 [17]: 0.938 µM (active)
- IC50 (Beta Lactamase): 21.1 µM (inactive)
- AC50 [18]: 41.3 µM (active)
- AC50 [19]: 3.39 µM (active)
- IC50 [20]: 3.95 µM (active)
- IC50 [21]: > 64.6 µM (inactive)

SMILES: CN(C)CCCN(C(=O)CCc1ccccc1)c1nc2ccc(Cl)cc2s1
- EC50 [22]: > 60 µM (not active)
- CC50 [23]: 17.1 µM (active)
- EC50 (Melanocortin receptor 4 [24]): > 89.2 µM (inactive)
- EC50 [25]: > 120 µM (not active)
- CC50 [26]: 12.4 µM (active)
- CC50 [27]: 16.6 µM (active)
- EC50 [28]: > 120 µM (not active)
- IC50 (cells): 22.9 µM (active)
